Experimental data as given in PubChem BioAssay (NCI).
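Protocol summary: plate cells (96-well), add compound at 5 concentrations, incubate 48 h, interpolate endpoints linearly. TGI: concentration producing complete growth inhibition.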

What was measured:
Assay in all cases: NCI anticancer screen, dose series, 48 h
DMS 273 small cell lung = tested on: DMS 273 small cell lung
M14 melanoma = tested on: M14 melanoma
OVCAR-4 ovarian = tested on: OVCAR-4 ovarian
HT29 colon = tested on: HT29 colon
LOX IMVI melanoma = tested on: LOX IMVI melanoma
SF-268 CNS = tested on: SF-268 CNS
UACC-257 melanoma = tested on: UACC-257 melanoma
SF-539 CNS = tested on: SF-539 CNS
SNB-19 CNS = tested on: SNB-19 CNS
SN12C renal = tested on: SN12C renal
NCI-H23 lung = tested on: NCI-H23 lung
OVCAR-8 ovarian = tested on: OVCAR-8 ovarian
HL-60(TB) leukemia = tested on: HL-60(TB) leukemia
SK-MEL-2 melanoma = tested on: SK-MEL-2 melanoma
SK-MEL-5 melanoma = tested on: SK-MEL-5 melanoma
NCI-H460 lung = tested on: NCI-H460 lung
RPMI-8226 leukemia = tested on: RPMI-8226 leukemia
DMS 114 small cell lung = tested on: DMS 114 small cell lung
U251 CNS = tested on: U251 CNS
RXF-631 renal = tested on: RXF-631 renal
OVCAR-3 ovarian = tested on: OVCAR-3 ovarian
HCC-2998 colon = tested on: HCC-2998 colon
LXFL 529 NSCLC = tested on: LXFL 529 NSCLC
TK-10 renal = tested on: TK-10 renal
HCT-116 colon = tested on: HCT-116 colon
MALME-3M melanoma = tested on: MALME-3M melanoma
HCT-15 colon = tested on: HCT-15 colon
A549 NSCLC = tested on: A549 NSCLC
786-0 renal = tested on: 786-0 renal
SW-620 colon = tested on: SW-620 colon
SK-MEL-28 melanoma = tested on: SK-MEL-28 melanoma
K-562 leukemia = tested on: K-562 leukemia
ACHN renal = tested on: ACHN renal
SF-295 CNS = tested on: SF-295 CNS
EKVX NSCLC = tested on: EKVX NSCLC
SR leukemia = tested on: SR leukemia
DLD-1 colon = tested on: DLD-1 colon
COLO 205 colon = tested on: COLO 205 colon
UACC-62 melanoma = tested on: UACC-62 melanoma
A498 renal = tested on: A498 renal
CCRF-CEM leukemia = tested on: CCRF-CEM leukemia
KM20L2 colon = tested on: KM20L2 colon
SNB-75 CNS = tested on: SNB-75 CNS
MOLT-4 leukemia = tested on: MOLT-4 leukemia
IGROV1 ovarian = tested on: IGROV1 ovarian
XF 498 CNS = tested on: XF 498 CNS
HOP-62 NSCLC = tested on: HOP-62 NSCLC
UO-31 renal = tested on: UO-31 renal
RXF 393 renal = tested on: RXF 393 renal
NCI-H226 lung = tested on: NCI-H226 lung
HOP-92 NSCLC = tested on: HOP-92 NSCLC
SK-OV-3 ovarian = tested on: SK-OV-3 ovarian
OVCAR-5 ovarian = tested on: OVCAR-5 ovarian
KM12 colon = tested on: KM12 colon
NCI-H522 lung = tested on: NCI-H522 lung
CAKI-1 renal = tested on: CAKI-1 renal

With CC(C)c1cccc(C(C)C)c1NC(=S)N=Nc1cc(C(C)(C)C)c(O)c(C(C)(C)C)c1 the TGI (DMS 273 small cell lung) was over 100 µM, the TGI (M14 melanoma) was 84.3 µM and the TGI (OVCAR-4 ovarian) was 43.1 µM. The TGI (HT29 colon) was over 100 µM, the TGI (LOX IMVI melanoma) was 34.2 µM and the TGI (SF-268 CNS) was over 100 µM. For the same compound, the TGI (UACC-257 melanoma) was 43.7 µM, the TGI (SF-539 CNS) was 39 µM and the TGI (SNB-19 CNS) was 48.5 µM. It also gave a TGI (SN12C renal) of 52.4 µM, a TGI (NCI-H23 lung) of 31.8 µM and a TGI (OVCAR-8 ovarian) of 38 µM. It also gave a TGI (HL-60(TB) leukemia) of 65.9 µM, a TGI (SK-MEL-2 melanoma) of 35.8 µM and a TGI (SK-MEL-5 melanoma) of 37.3 µM. For the same compound, the TGI (NCI-H460 lung) was 67.8 µM, the TGI (RPMI-8226 leukemia) was 85.9 µM and the TGI (DMS 114 small cell lung) was 55.5 µM. For the same compound, the TGI (U251 CNS) was 30.1 µM, the TGI (RXF-631 renal) was over 100 µM and the TGI (OVCAR-3 ovarian) was 52.2 µM. It also gave a TGI (HCC-2998 colon) of 54.3 µM, a TGI (LXFL 529 NSCLC) of over 100 µM and a TGI (TK-10 renal) of 71.5 µM. It also gave a TGI (HCT-116 colon) of 13.1 µM, a TGI (MALME-3M melanoma) of 63.8 µM and a TGI (HCT-15 colon) of over 100 µM. It also gave a TGI (A549 NSCLC) of 45.6 µM, a TGI (786-0 renal) of 35.7 µM and a TGI (SW-620 colon) of 78 µM. The TGI (SK-MEL-28 melanoma) was 95.7 µM, the TGI (K-562 leukemia) was 78.8 µM and the TGI (ACHN renal) was over 100 µM. It also gave a TGI (SF-295 CNS) of over 100 µM, a TGI (EKVX NSCLC) of over 100 µM and a TGI (SR leukemia) of over 100 µM. It also gave a TGI (DLD-1 colon) of over 100 µM, a TGI (COLO 205 colon) of 44.6 µM and a TGI (UACC-62 melanoma) of 50 µM. The TGI (A498 renal) was 34.4 µM, the TGI (CCRF-CEM leukemia) was 66.6 µM and the TGI (KM20L2 colon) was 58.6 µM. For the same compound, the TGI (SNB-75 CNS) was 58 µM, the TGI (MOLT-4 leukemia) was over 100 µM and the TGI (IGROV1 ovarian) was 62.6 µM. For the same compound, the TGI (XF 498 CNS) was 43.3 µM, the TGI (HOP-62 NSCLC) was 32.3 µM and the TGI (UO-31 renal) was 74.7 µM. It also gave a TGI (RXF 393 renal) of 30.9 µM.

For S=C(N/N=C/c1ccccc1)NC12CC3CC(CC(C3)C1)C2, the TGI (DMS 273 small cell lung) was 67.9 µM, the TGI (NCI-H226 lung) was over 100 µM and the TGI (M14 melanoma) was over 100 µM. It also gave a TGI (OVCAR-4 ovarian) of over 100 µM, a TGI (HT29 colon) of 26.5 µM and a TGI (LOX IMVI melanoma) of 45.1 µM. It also gave a TGI (SF-268 CNS) of over 100 µM, a TGI (UACC-257 melanoma) of over 100 µM and a TGI (HOP-92 NSCLC) of 56.2 µM. It also gave a TGI (SF-539 CNS) of over 100 µM, a TGI (SK-OV-3 ovarian) of over 100 µM and a TGI (SNB-19 CNS) of over 100 µM. The TGI (SN12C renal) was 48.8 µM, the TGI (NCI-H23 lung) was over 100 µM and the TGI (OVCAR-5 ovarian) was over 100 µM. It also gave a TGI (OVCAR-8 ovarian) of over 100 µM, a TGI (HL-60(TB) leukemia) of over 100 µM and a TGI (SK-MEL-2 melanoma) of over 100 µM. For the same compound, the TGI (SK-MEL-5 melanoma) was over 100 µM, the TGI (NCI-H460 lung) was over 100 µM and the TGI (RPMI-8226 leukemia) was 95.5 µM. It also gave a TGI (U251 CNS) of over 100 µM, a TGI (RXF-631 renal) of over 100 µM and a TGI (OVCAR-3 ovarian) of 83.4 µM. For the same compound, the TGI (LXFL 529 NSCLC) was over 100 µM, the TGI (TK-10 renal) was over 100 µM and the TGI (HCT-116 colon) was over 100 µM. The TGI (HCT-15 colon) was over 100 µM, the TGI (A549 NSCLC) was over 100 µM and the TGI (786-0 renal) was over 100 µM. The TGI (SW-620 colon) was over 100 µM, the TGI (SK-MEL-28 melanoma) was over 100 µM and the TGI (K-562 leukemia) was over 100 µM. It also gave a TGI (ACHN renal) of over 100 µM, a TGI (SF-295 CNS) of over 100 µM and a TGI (EKVX NSCLC) of over 100 µM. It also gave a TGI (SR leukemia) of over 100 µM, a TGI (COLO 205 colon) of 89.6 µM and a TGI (UACC-62 melanoma) of over 100 µM. It also gave a TGI (A498 renal) of over 100 µM, a TGI (CCRF-CEM leukemia) of 92.4 µM and a TGI (KM20L2 colon) of 76.2 µM. The TGI (MOLT-4 leukemia) was 74.2 µM, the TGI (IGROV1 ovarian) was over 100 µM and the TGI (KM12 colon) was over 100 µM. For the same compound, the TGI (NCI-H522 lung) was over 100 µM, the TGI (CAKI-1 renal) was over 100 µM and the TGI (XF 498 CNS) was over 100 µM. The TGI (HOP-62 NSCLC) was over 100 µM, the TGI (UO-31 renal) was over 100 µM and the TGI (RXF 393 renal) was over 100 µM.
